From patent US11384118B2, “CAR-T cells targeting glioma stem cells for the treatment of glioblastoma multiforme” (H. Lee Moffitt Cancer Center and Research Institute, Inc., priority 2018, dated 2022) come the findings set out here.

The subject of one series is GSCs. The experiment in a line: Binding of Cy5.5-conjugated peptide to GSCs / GSC tumor sphere. The note with it: peptide conjugated with Cyanine 5.5. On the set-up: species or system human. Here is the method:
Cells were dissociated to singles with TrypLE Express (Thermo Fisher Scientific) and recovered in Neurobasal medium at 37° C. for 1-2 hours. Before the incubation with primary antibodies, cells were blocked with 2% BSA in PBS for 30-50 minutes. Primary antibodies were treated at 4° C. for 40-90 minutes. Anti-EYA1 antibody (Aviva System Biology, ARP32434_P050), anti-IgG control antibody, 5(6)-carboxyfluorescein-conjugated peptide AWEFYFP, and cyanine 5.5-conjugated peptide AWEFYFP were used as primary antibodies. After washing with 1% BSA in PBS, cells were incubated with Alexa Fluor 488-conjugated goat anti-rabbit IgG antibody (Invitrogen, A11008) at 4° C. for 40 minutes. Unstained- or secondary antibody treated-cells without a primary antibody were used as negative controls. Labeled cells were analyzed by flow cytometry.

The test system of series [1] is glioblastoma xenografted into the subcutaneous flank. The experiment in a line: In vivo imaging after tail vein injection, subcutaneous flank xenograft. On the set-up: species or system NSG mice. From the text:
(§1) Cyanine 5.5-conjugated peptide AWEFYFP (SEQ ID NO:2) and control peptide GGGSGGG (SEQ ID NO:33) were synthesized by LifeTein, LCC. (Hillsborough, N.J., USA). GSCs were implanted into subcutaneously (5×10^5 cells) or intracranially (5×10^4 cells) into 4 weeks old NSG mice under a Cleveland Clinic Foundation Institutional Animal Care and Use Committee approved protocol. After 4 weeks, cyanine 5.5-conjugated peptides were delivered into the mice via intravenous injection. Signals from injected peptides were monitored by fluorescence channel of IVIS Spectrum CT In Vivo Imaging System (PerkinElmer, USA) for 72 hours.

The subject of series [2] is intracranial glioma patient-derived xenografts. The experiment in a line: In vivo imaging after tail vein injection, intracranial xenograft. Details: species or system NSG mice.
From the text: as §1

For another series, the system named is glioblastoma tissue. The experiment in a line: Fluorescent peptide staining of glioblastoma and normal brain tissue. Type of series: binding, human. The note with it: peptide conjugated with fluorescein. As to the method:
Patient brain tissues were obtained from Cleveland Clinic Tissue Bank. Cells (GSC and DGC) or frozen-sectioned tissues (glioblastoma and normal brain) were fixed in 4% paraformaldehyde and permeabilized with 0.1% Triton X-100 and stained using following primary antibodies: EYA1 (Aviva System Biology, ARP32434_P050), SOX2 (R&D system, MAB2018), vWF (Abcam, ab68548), CD31 (Santa Cruz Biotechnology, sc-1506), MYC (Cell signaling, 5605), and SIX1 (Abcam, ab84329) primary antibodies were incubated overnight at 4° C., followed species appropriate secondary antibodies with incubation for 3.5 hours at room temperature. Nuclei were stained with DAPI, and slides were then mounted with FluorSave (Calbiochem, 345789). Images were taken using a Leica DM4000 uplight microscopy. For DAB staining, tissues were incubated with rabbit anti-EYA1 or anti-c-Myc antibody overnight at 4° C., followed goat anti-rabbit biotinylated secondary antibody with incubation for 3.5 hours at room temperature. After incubation with antibodies, tissues were stained using VECTASTAIN Elite ABC HRP Kit (VECTOR LABORATORIES, PK-6100) and DAB Peroxidase Substrate Kit (VECTOR LABORATORIES, SK-4100) according to the manufacturer's instructions. After counterstaining with 50% hematoxylin, images were taken. […]

For series [3], the system named is patient-derived glioma stem cells. The experiment in a line: IFNG release assay following overnight coculture of CAR-T cells with GSC. Type of series: cell-based, human. The note with it: GSC vs DGC of same patient, H2110 and media negative controls. From the text:
Capitalizing on the unique ability of peptides EYA and VAV to bind to GSC, a series of chimeric antigen receptors (CARs) were designed that display a peptide derived from the EYA and VAV sequences, arranged in tandem, at the N-terminus of the CAR molecule. The role of the tandem peptides in the N-terminus of the CAR is to detect GSC, which in turn will activate the T cell through the CD3ζ domain in the C-terminus. Most CARs utilize antibody-derived molecules (Abate-Daga D, L et al. Hum Gene Ther. 2014 25(12):1003-12), or natural ligands (Brown C E, et al. N Engl J Med. 2016 375(26):2561-9; Brown C E, et al. Clin Cancer Res. 2012 18(8):2199-209) to receptors expressed by target cells to perform this function. Seven CAR constructs were generated based on combinations of peptides EYA and VAV (VAV-EYA and EYA-VAV), and of VAV plus five additional peptides (termed 1-VAV, 2-VAV, 3-VAV, 4-VAV, and 5-VAV) identified in the biopanning assays (FIG. 7). CAR cDNA was cloned into a retroviral expression vector used for clinical CAR-T cell manufacture, called pMSGV1, and the resulting constructs were used to transduce human primary T cells. The expression of the CAR molecules was first analyzed by Western blot against the CD3ζ chain of the CAR. Six of the seven CAR designs were expressed in transduced cells (FIG. 8). […]

“Also recorded” adds a separate entry of the source. Ends that are not written are not given here.

As for “GBM-IC2-Cy5.5: GBM-IC2 peptide conjugated with Cyanine 5.5, a near infrared marker (AWEFYFP; also: Cy5.5 conjugate)”, the “binding to GSCs” value is given as “binding to GSCs in a concentration-dependent manner” with GSCs and “preferential binding to GSC tumor sphere” with GSCs (listed as GBM-IC2 conjugated with Cy5.5). In addition, the “earliest time of tumor binding after injection” value in series [1] (flank xenograft) was determined as 20 min. The “tumor targeting by imaging, flank xenograft” value in series [1] (in vivo and ex vivo) is “high specificity of binding to the tumor; also recorded: specific targeting of the tumor four hours after injection in a dose dependent manner”. Besides, the “histological analysis of peptide signal in intracranial tumor” value in series [2] (ex vivo brain sections) is reported as “positive fluorescent signal in the intracranial tumor samples”. Besides, the “tumor targeting by imaging, intracranial xenograft” value in series [2] (tail vein injection, imaging 20 minutes post-injection, in vivo and ex vivo) is “strong specificity of binding of tumor in the intracranial cavity; also recorded: specific targeting of the intracranial tumor”. In series [2] (tail vein injection, intracranial xenograft), the “penetration of the BBB” value was “penetrate the BBB”.

For the substance “AWEFYFP (also: carboxyfluorescein conjugate) [GBM-IC2, used fluorescein-conjugated for staining]”, the “binding to glioblastoma tissue relative to normal brain” value in the series on glioblastoma tissue was “specifically bound to glioblastoma tissue, relative to normal brain; also recorded: preferential binding to glioblastoma tissue”. Besides, the “binding to SOX2 expressing cells (co-staining with GSC marker SOX2)” value with glioblastoma tissue (double staining with anti-SOX2) was “greater binding of GBM-IC2 to SOX2 expressing cells; also recorded: co-staining with SOX2”.

As for “5-VAV: CAR with peptide #5 linked to peptide VAV (binding agent SEQ ID NO:27) (NWYWVYPGGGGSGGGGSGGGGSSSQPFWSGSTSGSGKPGSGEGSTKG) [Peptide 5-VAV]”, in series [3], the “IFNG release / recognition of GSC” value was “specific recognition of GSC (but not differentiated glioma cells, DGC, derived from the same patient)”.
